Source: patent US8410310B2, “Trypsin-like serine protease inhibitors, and their preparation and use” (The Medicines Company (Leipzig) GmbH, priority 2006, dated 2013)

Key:
[1] = tested on: coagulation in human plasma (PPP); assay: Plasma coagulation times (prothrombin time, activated partial thromboplastin time); assay type: biochemical; details: for plasma coagulation times (prothrombin time, activated partial thromboplastin time): 100 to 1000 nM
Description: (§1) Since Compound No. 3 inhibits multiple proteases of the coagulation system, we investigated possible anticoagulant properties using established tests in vitro. Whereas tissue factor is the physiologic trigger of coagulation, both extrinsic and contact-mediated stimulation contribute to hemostatic activation under conditions like CPB (Boisclair et al. Blood 82: 3350-7, 1993 and Edmunds et al., Ann. Thorac. Surg. 82: 2315-22, 2006). We therefore studied the impact of Compound No. 3 and aprotinin on coagulation in plasma and whole blood following both intrinsic and extrinsic stimulation. Tranexamic acid has no influence on other proteases than plasminogen and, therefore, is not included in these experiments.
Prothrombin time and activated partial thromboplastin time were determined after human plasma (PPP) was supplemented with test compound solution or saline using a conventional coagulation analyzer (Sysmex CA-560, Dade Behring). Reagents used were Innovin® (extrinsic activator containing tissue factor) for prothrombin time and Actin® FSL (contact activator containing ellagic acid and phospholipids) for activated partial thromboplastin time, both from Dade Behring (Eschborn, Germany).

[2] = tested on: t-PA-induced fibrinolysis in plasma; assay: Plasma fibrinolysis assay (turbidometric); assay type: biochemical; details: human plasma, t-PA 50 U/mL; for IC50: read-out: IC50 on t-PA-induced fibrinolysis in plasma (median [25%; 75% percentile])
Method: Venous blood was withdrawn from the antecubital vein from healthy volunteers after written informed consent in accordance with local and federal guidelines with approval of the local review board (Ethikkommission, Klinikum Charité, Sauerbruchweg 5, 10117 Berlin). The blood was mixed with 0.11 mol/L sodium citrate (1:10). For ROTEM® analysis, whole citrated blood was used within 8 h after collection. Platelet-rich plasma (PRP) was prepared from citrated blood by centrifugation at 330×g for 10 min at room temperature, platelet-poor plasma (PPP) was collected following centrifugation at 1220×g for 12 min. The PRP was then adjusted to 3×10^8 platelets per mL using the autologous PPP. PRP was maintained at room temperature for less than 4 h before analysis. The remaining PPP was subjected to a high-speed centrifugation at 40,000×g for 30 min at 4° C. to remove any particulate material and was then stored at −70° C. until use.
The antifibrinolytic activity of Compound No. 3 in comparison to aprotinin and tranexamic acid was investigated in plasma and whole blood assays. In both assays, tissue factor was added to initiate rapid clot formation via the extrinsic pathway which produces a clot that remains stable for several hours under normal conditions. Supplementation of plasma or whole blood with tissue-type plasminogen activator (t-PA) before stimulation results in activation of endogenous plasminogen and thus fibrinolysis while the initial clot formation is not impaired. […] A final concentration of 50 U/mL and 100 U/mL in plasma and whole blood, respectively, was chosen to achieve complete lysis within about 60 min. In the presence of antifibrinolytics, clot lysis is delayed in a concentration-dependent manner.
Inhibition of fibrinolysis in plasma was examined using a turbidometric method in 96-well flat-bottom plates. The time course of clot formation and lysis, reflected by an initial increase and subsequent decrease in turbidity, was recorded by continuously measuring the optical density (OD) at 405 nm. Similar models have been used widely to study the clot lysis process in human plasma (Kim et al., J. Thromb. Haemost. 5: 1250-6, 2007) as well as its inhibition by antifibrinolytic drugs (Sperzel et al., J. Thromb. Haemost. 5: 2113-8, 2007). Frozen and thawed human plasma (PPP) was pre-incubated with test compound or vehicle (Owren's Veronal buffer) for 5 min at 37° C. […] OD at 405 nm was monitored every 45 s for 180 min at 37° C. with a microplate reader (POLARstar OPTIMA, BMG Labtech, Offenburg, Germany). Fibrinolysis was quantified as the relative decrease in OD at 45 min after the maximum OD was reached. […]

[3] = tested on: whole blood clotting; assay: Whole blood coagulation assay (ROTEM, INTEM/EXTEM); assay type: cell-based, human; details: for whole blood coagulation times (INTEM, EXTEM clotting time): 100 to 1000 nM; for clot strength (ROTEM maximum amplitude): over the concentration range tested (data not shown)
Description: as §1
The influence on whole blood clotting was assayed with rotational thrombelastometry (Ganter et al., Anesth. Analg. 106: 1366-75, 2008) using ellagic acid (INTEM reagent) as activator of the intrinsic system or tissue factor (EXTEM reagent) as extrinsic coagulation activator. Following a 5-min pre-incubation with test compounds or saline, citrated human blood was subjected to ROTEM® analysis according to the manufacturer's instructions. ROTEM® clotting time (equal to reaction time, r) and maximum clot strength (equal to maximum amplitude) were obtained as coagulation parameters.

[4] = higher aprotinin concentrations (data not shown)

Compound	plasma coagulation times (prothrombin time, activated partial thromboplastin time) [1]	IC50 [2] [nM]	whole blood coagulation times (INTEM, EXTEM clotting time) [3]	clot strength (ROTEM maximum amplitude) [3]	activated partial thromboplastin time [1, 4]	extrinsic coagulation [1, 4]	IC50 on t-PA-induced fibrinolysis in plasma expressed in KIU/mL ([2]; converted from nM) [KIU/mL]	intrinsic ROTEM clotting times [3, 4]
N=C(N)c1ccc(CNC(=O)[C@H](Cc2cccc(CN)c2)NC(=O)[C@@H](CCCc2ccccc2)NS(=O)(=O)Cc2cccc(C(=O)O)c2)cc1 [compound 3, 3-HOOC-Bzls-d-Ppg-Phe(3-Ame)-4-Amba×2 acetate]	significant prolongation	315	significant prolongation	Neither Compound No. 3 nor aprotinin impaired clot strength				
aprotinin	almost no influence	327	almost no influence	Neither Compound No. 3 nor aprotinin impaired clot strength	marked prolongation	not affected	15	marked prolongation
